Experimental data taken from patent EP4722207A1, “OXOISOINDOLINYL-SUBSTITUTED TETRAHYDROPYRIMIDINEDIONE DERIVATIVE AND USE THEREOF” (Gluetacs Therapeutics (Shanghai) Co., Ltd., priority 2023, dated 2024).

Key:
Assay type in all cases: cell-based
Details in all cases: compounds at 50 nM and 500 nM, 24 hours
IKZF1 = target: T1, IKZF1 (Homo sapiens, UniProt Q13422+Q96SW2); experiment: Western-blot assay, substrate protein degradation in hPBMCs: IKZF1
T1 construct: effects of the compounds of the present disclosure on the expression of target proteins in cells; endogenous in cells; host or cells: human PBMCs (hPBMCs)

WEE1 = target: T2, WEE1 (Homo sapiens, UniProt P30291+Q96SW2); experiment: Western-blot assay, substrate protein degradation in hPBMCs: WEE1
T2 construct: effects of the compounds of the present disclosure on the expression of target proteins in cells; endogenous in cells; host or cells: human PBMCs (hPBMCs)

IKZF2 = target: T3, IKZF2 (Homo sapiens, UniProt Q96SW2+Q9UKS7); experiment: Western-blot assay, substrate protein degradation in hPBMCs: IKZF2
T3 construct: effects of the compounds of the present disclosure on the expression of target proteins in cells; endogenous in cells; host or cells: human PBMCs (hPBMCs)

GSPT1 = target: T4, GSPT1 (Homo sapiens, UniProt P15170+Q96SW2); experiment: Western-blot assay, substrate protein degradation in hPBMCs: GSPT1
T4 construct: effects of the compounds of the present disclosure on the expression of target proteins in cells; endogenous in cells; host or cells: human PBMCs (hPBMCs)

IKZF3 = target: T5, IKZF3 (Homo sapiens, UniProt Q96SW2+Q9UKT9); experiment: Western-blot assay, substrate protein degradation in hPBMCs: IKZF3
T5 construct: effects of the compounds of the present disclosure on the expression of target proteins in cells; endogenous in cells; host or cells: human PBMCs (hPBMCs)

CK1α = target: T6, CK1α (Homo sapiens, UniProt P48729+Q96SW2); experiment: Western-blot assay, substrate protein degradation in hPBMCs: CK1α
T6 construct: effects of the compounds of the present disclosure on the expression of target proteins in cells; endogenous in cells; host or cells: human PBMCs (hPBMCs)
T6 sequence (P48729 whole entry): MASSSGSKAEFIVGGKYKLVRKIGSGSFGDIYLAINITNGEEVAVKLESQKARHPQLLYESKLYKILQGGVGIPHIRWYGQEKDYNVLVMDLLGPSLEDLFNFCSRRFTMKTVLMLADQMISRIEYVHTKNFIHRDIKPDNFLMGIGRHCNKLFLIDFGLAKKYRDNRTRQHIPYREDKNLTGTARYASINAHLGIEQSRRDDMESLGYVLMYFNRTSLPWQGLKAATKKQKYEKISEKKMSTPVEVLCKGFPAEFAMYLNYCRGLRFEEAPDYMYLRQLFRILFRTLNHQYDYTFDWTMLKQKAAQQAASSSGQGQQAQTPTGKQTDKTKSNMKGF
T6 sequence (Q96SW2 whole entry): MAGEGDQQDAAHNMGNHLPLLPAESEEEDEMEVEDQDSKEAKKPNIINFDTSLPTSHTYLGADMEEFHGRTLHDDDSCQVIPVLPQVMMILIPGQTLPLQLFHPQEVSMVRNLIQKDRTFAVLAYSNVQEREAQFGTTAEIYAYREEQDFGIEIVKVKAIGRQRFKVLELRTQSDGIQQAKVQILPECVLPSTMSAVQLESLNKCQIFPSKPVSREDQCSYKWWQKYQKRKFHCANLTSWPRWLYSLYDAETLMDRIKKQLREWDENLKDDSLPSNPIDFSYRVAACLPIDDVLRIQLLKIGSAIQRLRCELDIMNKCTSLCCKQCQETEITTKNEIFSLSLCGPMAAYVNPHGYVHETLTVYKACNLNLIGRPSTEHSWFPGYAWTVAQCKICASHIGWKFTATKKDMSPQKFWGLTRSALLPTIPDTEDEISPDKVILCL
T6 sequence (Q16531 whole entry partner): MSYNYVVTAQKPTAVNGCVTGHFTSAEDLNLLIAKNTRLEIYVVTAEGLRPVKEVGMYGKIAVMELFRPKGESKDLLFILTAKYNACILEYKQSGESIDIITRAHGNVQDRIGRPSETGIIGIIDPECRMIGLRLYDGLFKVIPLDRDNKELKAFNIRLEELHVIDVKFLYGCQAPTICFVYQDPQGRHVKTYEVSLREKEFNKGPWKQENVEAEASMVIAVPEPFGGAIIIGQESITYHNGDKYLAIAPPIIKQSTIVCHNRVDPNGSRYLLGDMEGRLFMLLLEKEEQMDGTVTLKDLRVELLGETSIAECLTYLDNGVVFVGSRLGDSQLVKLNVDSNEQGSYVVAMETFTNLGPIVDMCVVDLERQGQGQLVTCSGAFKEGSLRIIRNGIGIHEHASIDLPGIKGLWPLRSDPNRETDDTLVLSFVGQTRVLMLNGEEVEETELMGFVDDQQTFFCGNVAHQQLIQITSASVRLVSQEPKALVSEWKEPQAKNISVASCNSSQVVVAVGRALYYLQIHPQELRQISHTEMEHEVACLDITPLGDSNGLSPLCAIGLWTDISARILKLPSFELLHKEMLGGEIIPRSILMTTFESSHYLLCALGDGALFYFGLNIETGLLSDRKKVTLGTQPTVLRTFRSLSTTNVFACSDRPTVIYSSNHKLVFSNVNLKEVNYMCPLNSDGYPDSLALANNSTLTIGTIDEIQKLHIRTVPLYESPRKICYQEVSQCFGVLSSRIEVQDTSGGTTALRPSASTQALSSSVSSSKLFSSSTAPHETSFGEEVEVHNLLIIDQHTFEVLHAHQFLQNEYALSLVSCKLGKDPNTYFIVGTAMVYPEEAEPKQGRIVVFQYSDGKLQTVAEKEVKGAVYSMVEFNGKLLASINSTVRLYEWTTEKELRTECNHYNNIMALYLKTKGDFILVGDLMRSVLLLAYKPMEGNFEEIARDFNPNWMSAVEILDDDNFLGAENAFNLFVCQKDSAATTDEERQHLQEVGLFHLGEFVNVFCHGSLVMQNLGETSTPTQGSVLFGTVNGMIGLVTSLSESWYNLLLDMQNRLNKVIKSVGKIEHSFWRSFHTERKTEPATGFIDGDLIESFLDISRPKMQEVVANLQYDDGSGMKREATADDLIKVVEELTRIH

T5 sequence (Q9UKT9 whole entry): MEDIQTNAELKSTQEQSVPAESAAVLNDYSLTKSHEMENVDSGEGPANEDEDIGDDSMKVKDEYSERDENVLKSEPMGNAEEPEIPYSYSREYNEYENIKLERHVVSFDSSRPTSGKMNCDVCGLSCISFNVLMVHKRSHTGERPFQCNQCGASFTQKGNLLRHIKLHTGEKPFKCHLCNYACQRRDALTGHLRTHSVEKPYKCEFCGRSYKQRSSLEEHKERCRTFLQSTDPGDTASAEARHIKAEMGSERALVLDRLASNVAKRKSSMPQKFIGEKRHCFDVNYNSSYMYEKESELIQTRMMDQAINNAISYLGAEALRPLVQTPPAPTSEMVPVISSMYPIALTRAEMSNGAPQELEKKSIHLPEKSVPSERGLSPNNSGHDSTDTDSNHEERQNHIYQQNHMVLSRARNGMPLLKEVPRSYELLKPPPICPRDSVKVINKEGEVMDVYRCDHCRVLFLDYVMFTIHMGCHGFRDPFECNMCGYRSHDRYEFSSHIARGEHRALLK
T5 sequence (Q96SW2 whole entry): as the sequence (Q96SW2 whole entry) above
T5 sequence (Q16531 whole entry partner): as the sequence (Q16531 whole entry partner) above
T4 sequence (P15170 whole entry): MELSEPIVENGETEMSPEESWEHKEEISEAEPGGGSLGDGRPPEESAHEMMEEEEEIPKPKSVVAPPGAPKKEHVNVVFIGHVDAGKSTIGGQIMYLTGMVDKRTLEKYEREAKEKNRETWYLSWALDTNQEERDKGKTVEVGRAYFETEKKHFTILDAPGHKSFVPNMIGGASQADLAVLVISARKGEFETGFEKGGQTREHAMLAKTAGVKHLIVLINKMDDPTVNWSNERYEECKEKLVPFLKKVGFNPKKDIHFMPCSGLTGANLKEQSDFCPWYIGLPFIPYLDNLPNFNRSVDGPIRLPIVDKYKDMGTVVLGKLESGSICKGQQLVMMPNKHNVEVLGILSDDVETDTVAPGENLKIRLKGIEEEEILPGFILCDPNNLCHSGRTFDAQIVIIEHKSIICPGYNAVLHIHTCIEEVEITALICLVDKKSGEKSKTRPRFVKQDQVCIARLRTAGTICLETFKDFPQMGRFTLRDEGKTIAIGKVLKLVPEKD
T4 sequence (Q96SW2 whole entry): as the sequence (Q96SW2 whole entry) above
T4 sequence (Q16531 whole entry partner): as the sequence (Q16531 whole entry partner) above
T1 sequence (Q13422 whole entry): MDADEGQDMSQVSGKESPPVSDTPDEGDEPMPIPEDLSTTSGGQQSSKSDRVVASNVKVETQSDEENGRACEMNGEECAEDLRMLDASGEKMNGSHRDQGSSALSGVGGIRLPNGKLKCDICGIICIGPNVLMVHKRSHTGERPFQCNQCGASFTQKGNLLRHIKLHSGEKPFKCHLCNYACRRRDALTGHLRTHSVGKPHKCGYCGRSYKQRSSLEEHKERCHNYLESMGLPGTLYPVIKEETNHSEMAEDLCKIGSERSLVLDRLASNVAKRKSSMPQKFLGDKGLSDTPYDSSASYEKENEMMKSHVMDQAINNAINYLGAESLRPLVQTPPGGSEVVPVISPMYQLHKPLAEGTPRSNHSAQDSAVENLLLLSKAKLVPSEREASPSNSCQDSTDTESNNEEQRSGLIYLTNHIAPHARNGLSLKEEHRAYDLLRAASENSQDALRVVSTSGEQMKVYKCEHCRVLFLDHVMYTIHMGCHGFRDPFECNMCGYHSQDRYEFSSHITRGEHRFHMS
T1 sequence (Q96SW2 whole entry): as the sequence (Q96SW2 whole entry) above
T1 sequence (Q16531 whole entry partner): as the sequence (Q16531 whole entry partner) above
T3 sequence (Q9UKS7 whole entry): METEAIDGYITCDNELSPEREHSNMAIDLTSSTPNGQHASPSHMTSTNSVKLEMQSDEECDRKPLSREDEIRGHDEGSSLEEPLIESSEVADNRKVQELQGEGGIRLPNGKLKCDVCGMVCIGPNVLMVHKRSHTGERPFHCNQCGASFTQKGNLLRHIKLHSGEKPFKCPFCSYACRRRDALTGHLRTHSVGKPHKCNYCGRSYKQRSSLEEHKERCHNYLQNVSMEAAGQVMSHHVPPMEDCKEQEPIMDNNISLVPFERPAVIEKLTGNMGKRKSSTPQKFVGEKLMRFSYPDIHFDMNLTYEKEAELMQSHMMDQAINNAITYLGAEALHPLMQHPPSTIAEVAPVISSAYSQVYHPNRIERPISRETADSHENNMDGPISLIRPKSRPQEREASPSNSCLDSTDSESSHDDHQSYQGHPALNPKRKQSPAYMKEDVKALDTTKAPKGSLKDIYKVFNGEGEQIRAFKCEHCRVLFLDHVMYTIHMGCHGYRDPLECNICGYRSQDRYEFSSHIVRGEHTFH
T3 sequence (Q96SW2 whole entry): as the sequence (Q96SW2 whole entry) above
T3 sequence (Q16531 whole entry partner): as the sequence (Q16531 whole entry partner) above

Compound | IKZF1 substrate protein remaining % (IKZF1) | WEE1 substrate protein remaining % (WEE1) | IKZF2 substrate protein remaining % (IKZF2) | GSPT1 substrate protein remaining % (GSPT1) | IKZF3 substrate protein remaining % (IKZF3) | CK1α substrate protein remaining % (CK1α)
O=C1CCN(N2C(=O)c3ccc(CN4CCN(c5ccc(Cl)cc5)CC4)cc3C2=O)C(=O)N1 [GT-06783, 5-((4-(4-chlorophenyl)piperazin-1-yl)methyl)-2-(2,4-dioxotetrahydropyrimidin-1(2H)-yl)isoindoline-1,3-dione] | B ("B" is defined as 80%< substrate protein remaining %≤ 100%) | B ("B" is defined as 80%< substrate protein remaining %≤ 100%) | B ("B" is defined as 80%< substrate protein remaining %≤ 100%) | B ("B" is defined as 80%< substrate protein remaining %≤ 100%) | A ("A" is defined as 0% ≤ substrate protein remaining % ≤ 80%) | B ("B" is defined as 80%< substrate protein remaining %≤ 100%)
O=C1CCN(N2C(=O)c3ccc(CN4CCN(c5ccc(Br)cc5)CC4)cc3C2=O)C(=O)N1 [GT-06784, 5-((4-(4-bromophenyl)piperazin-1-yl)methyl)-2-(2,4-dioxotetrahydropyrimidin-1(2H)-yl)isoindoline-1,3-dione] | B ("B" is defined as 80%< substrate protein remaining %≤ 100%) | B ("B" is defined as 80%< substrate protein remaining %≤ 100%) | B ("B" is defined as 80%< substrate protein remaining %≤ 100%) | B ("B" is defined as 80%< substrate protein remaining %≤ 100%) | B ("B" is defined as 80%< substrate protein remaining %≤ 100%) | A ("A" is defined as 0% ≤ substrate protein remaining % ≤ 80%)
O=C1CCN(N2C(=O)c3ccc(CN4CCN(c5cccc(F)c5F)CC4)cc3C2=O)C(=O)N1 [GT-06793, 5-((4-(2,3-difluorophenyl)piperazin-1-yl)methyl)-2-(2,4-dioxotetrahydropyrimidin-1(2H)-yl)isoindoline-1,3-dione] | B ("B" is defined as 80%< substrate protein remaining %≤ 100%) | B ("B" is defined as 80%< substrate protein remaining %≤ 100%) | A ("A" is defined as 0% ≤ substrate protein remaining % ≤ 80%) | B ("B" is defined as 80%< substrate protein remaining %≤ 100%) | B ("B" is defined as 80%< substrate protein remaining %≤ 100%) | B ("B" is defined as 80%< substrate protein remaining %≤ 100%)
O=C1CCN(N2C(=O)c3ccc(CN4CCN(c5c(F)cccc5F)CC4)cc3C2=O)C(=O)N1 [GT-06796, 5-((4-(2,6-difluorophenyl)piperazin-1-yl)methyl)-2-(2,4-dioxotetrahydropyrimidin-1(2H)-yl)isoindoline-1,3-dione] | B ("B" is defined as 80%< substrate protein remaining %≤ 100%) | A ("A" is defined as 0% ≤ substrate protein remaining % ≤ 80%) | B ("B" is defined as 80%< substrate protein remaining %≤ 100%) | B ("B" is defined as 80%< substrate protein remaining %≤ 100%) | B ("B" is defined as 80%< substrate protein remaining %≤ 100%) | B ("B" is defined as 80%< substrate protein remaining %≤ 100%)
O=C1CCN(N2C(=O)c3ccc(CN4CCN(c5ccc(F)c(F)c5)CC4)cc3C2=O)C(=O)N1 [GT-06797, 5-((4-(3,4-difluorophenyl)piperazin-1-yl)methyl)-2-(2,4-dioxotetrahydropyrimidin-1(2H)-yl)isoindoline-1,3-dione] | B ("B" is defined as 80%< substrate protein remaining %≤ 100%) | A ("A" is defined as 0% ≤ substrate protein remaining % ≤ 80%) | B ("B" is defined as 80%< substrate protein remaining %≤ 100%) | B ("B" is defined as 80%< substrate protein remaining %≤ 100%) | B ("B" is defined as 80%< substrate protein remaining %≤ 100%) | B ("B" is defined as 80%< substrate protein remaining %≤ 100%)
